Reference: patent US20160002204A1 (Board of Regents, The University of Texas System, priority 2014, published 2016)

What was measured:
[1] = target: T1, GLS1 (purified recombinant human GAC) (Homo sapiens, UniProt O94925); assay: GLS1 enzymatic activity assay (dual-coupled, Amplex UltraRed/resorufin); type: biochemical
T1 sequence (O94925 55-598 isoform O94925-3 limits assumed): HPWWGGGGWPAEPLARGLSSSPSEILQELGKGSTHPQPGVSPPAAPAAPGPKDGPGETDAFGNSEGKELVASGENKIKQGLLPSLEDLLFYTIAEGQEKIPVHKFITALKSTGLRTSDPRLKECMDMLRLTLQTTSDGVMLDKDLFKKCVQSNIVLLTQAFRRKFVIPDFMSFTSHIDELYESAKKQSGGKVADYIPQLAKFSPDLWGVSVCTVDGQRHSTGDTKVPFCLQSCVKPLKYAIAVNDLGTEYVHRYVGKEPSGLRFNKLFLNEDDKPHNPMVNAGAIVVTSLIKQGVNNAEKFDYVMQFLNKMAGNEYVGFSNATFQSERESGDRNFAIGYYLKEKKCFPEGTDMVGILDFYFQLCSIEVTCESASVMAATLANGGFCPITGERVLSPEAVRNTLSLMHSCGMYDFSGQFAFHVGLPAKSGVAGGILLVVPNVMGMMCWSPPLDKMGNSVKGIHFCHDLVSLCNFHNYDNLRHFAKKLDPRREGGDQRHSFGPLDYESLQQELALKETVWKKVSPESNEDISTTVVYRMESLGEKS
How it was run: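 GAC activity measured by coupling glutamate to glutamate oxidase and HRP, generating resorufin from Amplex UltraRed. Enzyme (2 nM) preincubated with 50 mM potassium phosphate 10 min at room temperature, then inhibitor 10 min; 1 mM glutamine substrate, 1% DMSO. Fluorescence 530/590 nm, kinetic or 20-min endpoint; IC50 from four-parameter logistic fit.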

A549 cells = assay: A549 proliferation (viability) assay, Cell Titer Fluor, 72 hours; type: cell-based; conditions: Homo sapiens
How it was run: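 Compound exposure lasted 72 h (final DMSO 0.5% v/v) on A549 cells plated at 1000 cells/well one day earlier. Cell Titer Fluor added, 30 min at 37 °C, fluorescence read; EC50 derived by four-parameter logistic curve fitting.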

IC50 [1]	EC50 (A549 cells)	SMILES
< 100 nM	< 100 nM	O=C(CC1CCCC1)Nc1ccn(CCC(F)Cn2cc(C(=O)NCc3ccc(OC(F)(F)F)cn3)nn2)c(=O)c1F (stereo not shown) [Example 400, 1-{4-[4-(2-cyclopentylacetamido)-3-fluoro-2-oxo-1,2-dihydropyridin-1-yl]-2-fluorobutyl}-N-{[5-(trifluoromethoxy)pyridin-2-yl]methyl}-1H-1,2,3-triazole-4-carboxamide]
< 100 nM	< 100 nM	O=C(Nc1ccn(CCCCn2cc(C(=O)NCc3cccc(OC(F)(F)F)c3)nn2)c(=O)c1)OC1CCCCC1 [Example 44, cyclohexyl N-(2-oxo-1-{4-[4-({[3-(trifluoromethoxy)phenyl]methyl}carbamoyl)-1H-1,2,3-triazol-1-yl]butyl}-1,2-dihydropyridin-4-yl)carbamate]
< 100 nM	< 100 nM	O=C(CC1CCCC1)Nc1ccn(CCC(F)Cn2cc(C(=O)NCc3ncccc3F)nn2)c(=O)c1F (stereo not shown) [Example 387, 1-{4-[4-(2-cyclopentylacetamido)-3-fluoro-2-oxo-1,2-dihydropyridin-1-yl]-2-fluorobutyl}-N-[(3-fluoropyridin-2-yl)methyl]-1H-1,2,3-triazole-4-carboxamide]
500 to 5000 nM	500 to 5000 nM	O=C(Nc1ccn(CCC(F)Cn2cc(C(=O)NCc3ccccn3)nn2)c(=O)c1F)C(=O)N1CCCCC1 (stereo not shown) [Example 427, 1-(2-fluoro-4-{3-fluoro-2-oxo-4-[2-oxo-2-(piperidin-1-yl)acetamido]-1,2-dihydropyridin-1-yl}butyl)-N-(pyridin-2-ylmethyl)-1H-1,2,3-triazole-4-carboxamide]
< 100 nM	< 100 nM	O=C(CC1CCC1)Nc1ccn(CCC(F)Cn2cc(C(=O)NCc3cccc(C(F)(F)F)n3)nn2)c(=O)c1F (stereo not shown) [Example 336, 1-{4-[4-(2-cyclobutylacetamido)-3-fluoro-2-oxo-1,2-dihydropyridin-1-yl]-2-fluorobutyl}-N-{[6-(trifluoromethyl)pyridin-2-yl]methyl}-1H-1,2,3-triazole-4-carboxamide]
< 100 nM	< 100 nM	C[C@H](C(=O)Nc1ccn(CCC(F)Cn2cc(C(=O)NCc3cncc(C(F)(F)F)c3)nn2)c(=O)c1F)c1ccccc1 (stereo partly shown) [Example 349]
< 100 nM	< 100 nM	O=C(Nc1ccn(CCC(F)Cn2cc(C(=O)NCc3cccc(OC(F)(F)F)c3)nn2)c(=O)c1F)OC1CCC1 (stereo not shown) [Example 376, cyclobutyl N-(3-fluoro-1-{3-fluoro-4-[4-({[3-(trifluoro-methoxy)phenyl]methyl}carbamoyl)-1H-1,2,3-triazol-1-yl]butyl}-2-oxo-1,2-dihydropyridin-4-yl)carbamate]
< 100 nM	100 to 500 nM	O=C(CN1CC(F)(F)C1)Nc1ccn(CCC(F)Cn2cc(C(=O)NCc3cccc(OC(F)(F)F)c3)nn2)c(=O)c1 (stereo not shown) [Example 232, 1-(4-{4-[2-(3,3-difluoroazetidin-1-yl)acetamido]-2-oxo-1,2-dihydropyridin-1-yl}-2-fluorobutyl)-N-{[3-(trifluoromethoxy)phenyl]methyl}-1H-1,2,3-triazole-4-carboxamide]
< 100 nM	100 to 500 nM	O=C(NCC1CCCCC1)c1ccn(CCCCn2cc(C(=O)NCc3cccc(OC(F)(F)F)c3)nn2)c(=O)c1 [Example 63, N-(cyclohexylmethyl)-2-oxo-1-{4-[4-({[3-(trifluoro-methoxy)phenyl]methyl}carbamoyl)-1H-1,2,3-triazol-1-yl]butyl}-1,2-dihydropyridine-4-carboxamide]
< 100 nM	< 100 nM	O=C(NCc1cc(C(F)(F)F)ccn1)c1cn(CC(F)CCn2ccc(COc3ccc(Cl)cc3)cc2=O)nn1 (stereo not shown) [Example 486, 1-{4-[4-(4-chlorophenoxymethyl)-2-oxo-1,2-dihydropyridin-1-yl]-2-fluorobutyl}-N-{[4-(trifluoromethyl)pyridin-2-yl]methyl}-1H-1,2,3-triazole-4-carboxamide]
100 to 500 nM	> 5000 nM	CC(=O)Nc1ccn(CCCCc2nnc(NC(=O)Cc3ccccc3)s2)c(=O)n1 [Example 18]
< 100 nM	500 to 5000 nM	COc1cccc(CNC(=O)c2cn(CCCCn3ccc(NC(=O)Cc4cccc(OC(F)(F)F)c4)cc3=O)nn2)c1 [Example 65, N-[(3-methoxyphenyl)methyl]-1-[4-(2-oxo-4-{2-[3-(trifluoromethoxy)phenyl]acetamido}-1,2-dihydropyridin-1-yl)butyl]-1H-1,2,3-triazole-4-carboxamide]
< 100 nM	100 to 500 nM	O=C(Cc1ccccc1)Nc1nnc(CCCCn2ccc(NC(=O)CC3CCCC3)c(F)c2=O)s1 [Example 502, 2-cyclopentyl-N-(3-fluoro-2-oxo-1-{4-[5-(2-phenylacetamido)-1,3,4-thiadiazol-2-yl]butyl}-1,2-dihydropyridin-4-yl)acetamide]
100 to 500 nM	500 to 5000 nM	O=C(Cc1ccccc1)Nc1ccn(CCC(F)Cn2cc(C(=O)NCc3ncccc3F)nn2)c(=O)c1F (stereo not shown) [Example 373, 1-{2-fluoro-4-[3-fluoro-2-oxo-4-(2-phenylacetamido)-1,2-dihydropyridin-1-yl]butyl}-N-[(3-fluoropyridin-2-yl)methyl]-1H-1,2,3-triazole-4-carboxamide]
< 100 nM	< 100 nM	O=C(CC1CCCCC1)Nc1ccn(CCCCn2cc(C(=O)NCc3cccc(OC(F)(F)F)c3)nn2)c(=O)c1 [Example 45, 1-{4-[4-(2-cyclohexylacetamido)-2-oxo-1,2-dihydropyridin-1-yl]butyl}-N-{[3-(trifluoromethoxy)phenyl]methyl}-1H-1,2,3-triazole-4-carboxamide]
100 to 500 nM	500 to 5000 nM	CCN1CCC(CC(=O)Nc2ccn(CCCCn3cc(C(=O)NCc4cccc(C(F)(F)F)c4)nn3)c(=O)c2)CC1 [Example 156, 1-(4-{4-[2-(1-ethylpiperidin-4-yl)acetamido]-2-oxo-1,2-dihydropyridin-1-yl}butyl)-N-{[3-(trifluoromethyl)phenyl]methyl}-1H-1,2,3-triazole-4-carboxamide]
< 100 nM	100 to 500 nM	O=C(Cc1ccccn1)Nc1ccn(CCC(F)Cn2cc(C(=O)NCc3cccc(OC(F)(F)F)c3)nn2)c(=O)c1 (stereo not shown) [Example 250, 1-(2-fluoro-4-{2-oxo-4-[2-(pyridin-2-yl)acetamido]-1,2-dihydropyridin-1-yl}butyl)-N-{[3-(trifluoromethoxy)phenyl]methyl}-1H-1,2,3-triazole-4-carboxamide]
< 100 nM	< 100 nM	O=C(Nc1ccn(CCC(F)Cn2cc(C(=O)NCc3cc(C(F)(F)F)ccn3)nn2)c(=O)n1)OCc1cccc(OC(F)(F)F)c1 (stereo not shown) [Example 500, [3-(trifluoromethoxy)phenyl]methyl N-(1-{3-fluoro-4-[4-({[4-(trifluoromethyl)pyridin-2-yl]methyl}carbamoyl)-1H-1,2,3-triazol-1-yl]butyl}-2-oxo-1,2-dihydropyrimidin-4-yl)carbamate]
< 100 nM	100 to 500 nM	O=C(CN1CCC(F)C1)Nc1ccn(CCC(F)Cn2cc(C(=O)NCc3cccc(OC(F)(F)F)c3)nn2)c(=O)c1 (stereo not shown) [Example 227, 1-(2-fluoro-4-{4-[2-(3-fluoropyrrolidin-1-yl)acetamido]-2-oxo-1,2-dihydropyridin-1-yl}butyl)-N-{[3-(trifluoromethoxy)phenyl]methyl}-1H-1,2,3-triazole-4-carboxamide]
< 100 nM	100 to 500 nM	CC(=O)Nc1ccn(CCCCc2ccc(NC(=O)Cc3cccc(OC(F)(F)F)c3)nn2)c(=O)n1 [Example 76, N-{6-[4-(4-acetamido-2-oxo-1,2-dihydropyrimidin-1-yl)butyl]pyridazin-3-yl}-2-[3-(trifluoromethoxy)phenyl]acetamide]
< 100 nM	100 to 500 nM	CC(C)OC(=O)Nc1ccn(CCCCc2ccc(NC(=O)Cc3ccccc3)nn2)c(=O)n1 [Example 94, propan-2-yl N-(2-oxo-1-{4-[6-(2-phenylacetamido)pyridazin-3-yl]butyl}-1,2-dihydropyrimidin-4-yl)carbamate]
< 100 nM	100 to 500 nM	O=C(Nc1ccn(CCC(F)Cn2cc(C(=O)NCc3cccc(OC(F)(F)F)c3)nn2)c(=O)n1)OC1CCC1 (stereo not shown) [Example 385, cyclobutyl N-(1-{3-fluoro-4-[4-({[3-(trifluoromethoxy)phenyl]methyl}carbamoyl)-1H-1,2,3-triazol-1-yl]butyl}-2-oxo-1,2-dihydro-pyrimidin-4-yl)carbamate]

SMILES	IC50 [1]	EC50 (A549 cells)
O=C(CN1CC2CC(C2)C1)Nc1ccn(CCC(F)Cn2cc(C(=O)NCc3cc(C(F)(F)F)ccn3)nn2)c(=O)c1F (stereo not shown) [Example 415, 1-{4-[4-(2-{3-azabicyclo[3.1.1]heptan-3-yl}acetamido)-3-fluoro-2-oxo-1,2-dihydropyridin-1-yl]-2-fluorobutyl}-N-{[4-(trifluoromethyl)pyridin-2-yl]methyl}-1H-1,2,3-triazole-4-carboxamide]	< 100 nM	< 100 nM
